Assay results taken from US11420966B2 (ACLARIS THERAPEUTICS, INC., priority 2019, dated 2022).

What was measured:
[1] = target: JAK3 (a.a. 781-1124) (Homo sapiens (Human), UniProt P52333); assay: JAK3 enzyme activity assay (SRCtide phosphorylation, Caliper); assay type: biochemical; conditions: 1 uM ATP; read-out: JAK3 Inhibition IC50
[2] = test system: IL-2 stimulated STAT5 phosphorylation on Tyr694 (JAK1/3); assay: JAK1/3 cellular target modulation: IL-2 stimulated phospho-STAT5 in PBMC; assay type: cell-based; conditions: human PBMC, IL-2 25 ng/ml; read-out: IL2-STAT5 IC50
In short: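 Thawed human PBMC (200,000/well, RPMI/10% FBS) were preincubated with compound for 1 h at 37 °C, added from 10× stocks in 1% DMSO. Stimulation and read-out: IL-2 25 ng/ml, 5 min, pSTAT5 by MSD; IL-12 1.7 ng/ml, 25 min, pSTAT4 by MSD; IFNγ 10 ng/ml, 10 min, pSTAT1 by sandwich ELISA.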

[3] = test system: IL-12 stimulated STAT4 phosphorylation on Tyr693 (JAK2/TYK2); assay: JAK2/TYK2 cellular target modulation: IL-12 stimulated phospho-STAT4 in PBMC; assay type: cell-based; conditions: human PBMC, IL-12 1.7 ng/ml; read-out: IL12-STAT4 IC50
From the text: (§1) JAK Cellular Target Modulation Assays
(§2) Target modulation was based upon the ability of a compound to inhibit JAK isoform specific phosphorylation of selected substrates. IL-2 stimulated STAT5 phosphorylation on Tyr694 was used to assess JAK1/3 compound selectivity. GM-CSF stimulated STAT5 phosphorylation on Tyr694 was used to assess JAK2 compound selectivity. IFNγ stimulated STAT1 phosphorylation on Tyr701 was used to assess JAK1/2 compound selectivity. IL-12 stimulated STAT4 phosphorylation on Tyr693 was used to assess JAK2/TYK2 compound selectivity. For all four assays, human PBMC from frozen stocks were thawed, pelleted, resuspended in complete media (90% RPMI, 10% heat inactivated FBS, 10 mM HEPES, 47 μM 2-ME, pen/strep) and placed in wells of a 96 well V-bottom plate at 200,000 per well in 120 μl complete media. Compounds were added as 15 μl per well of 10× working stock solutions in complete media with 1% DMSO (or medium with 1% DMSO for controls) and placed on a plate shaker in a 37° C. incubator with 5% CO2 for 1 hour with gentle shaking (setting of 3). Stimulation used the addition of soluble cytokines. For the JAK1/3 phospho-STAT5 assay, 15 μl of 10× working stock recombinant human IL-2 was added to a final concentration of 25 ng/ml. For the JAK2 phospho-STAT5 assay, 15 μl of 10× working stock recombinant human GM-CSF was added to a final concentration of 5 ng/ml. For the JAK1/2 phospho-STAT1 assay, 15 μl of 10× working stock of recombinant human IFNγ was added to a final concentration of 10 ng/ml. For the JAK2/TYK2 phospho-STAT4 assay, 15 μl of 10× working stock of recombinant human IL-12 was added to a final concentration of 1.7 ng/ml. Plates were then placed back on the plate shaker in the incubator for an additional 5, 5, 10, and 25 minutes respectively upon which the plates were removed from the incubator, sealed with a plate sealer and the cells pelleted at 400×g for 5 minutes. After pelleting, the media was removed by aspiration and the cells were lysed in assay specific cell lysis buffer. The levels of phospho-STATS were determined using a Phospho (Tyr694) STAT5a,b Whole Cell Lysate kit from Meso Scale Discovery. Levels of phospho-STAT1 were determined using a CST-PathScan Phospho-STAT1 (Tyr701) Sandwich ELISA kit. Levels of phospho-STAT4 were determined using a Phospho-STAT4 (Tyr693) Whole Cell Lysate kit from Meso Scale Discovery.

[4] = target: JAK1 (Homo sapiens (Human), UniProt P23458); assay: JAK1 enzyme activity assay (Thermo Fisher SelectScreen, Z-lyte); assay type: biochemical; conditions: read-out: JAK1 Inhibition IC50
In short: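 Z-lyte assay with 21.2-91.5 ng JAK and […] Tyr 06 in 50 mM HEPES pH 7.0, 10 mM MgCl2, 1 mM EGTA, 0.01% BRIJ-35; 1 h kinase reaction, then development reagent. 11-point dose-response from […] to 0.34 nM, 2% DMSO vehicle; IC50 from 4-parameter logistic fit of emission ratio.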

[5] = target: JAK2 (Homo sapiens (Human), UniProt O60674); assay: JAK2 enzyme activity assay (Thermo Fisher SelectScreen, Z-lyte); assay type: biochemical; conditions: read-out: JAK2 Inhibition IC50
In short: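 Z-lyte FRET kinase assay: 0.12-0.5 ng JAK2 with […] Tyr 06 peptide in 50 mM HEPES pH 7.5, 0.01% BRIJ-35, 10 mM MgCl2, 1 mM EGTA, 1 h reaction before development reagent. 11-point dose-response from […] to 0.34 nM, 2% DMSO; IC50 from 4-parameter fit of emission ratio.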

[6] = target: Tyk-2 (Homo sapiens (Human), UniProt P29597); assay: Tyk-2 enzyme activity assay (Thermo Fisher SelectScreen, Z-lyte); assay type: biochemical; conditions: read-out: Tyk-2 Inhibition IC50
In short: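 Z-lyte FRET assay: 3.75–15 ng TYK2 with […] Tyr 03 peptide in HEPES pH 7.0, MgCl2, EGTA, BRIJ-35; 1 h reaction, then development reagent. 11-point dose-response, 2% DMSO; IC50 via 4-parameter fit of emission ratio, background without enzyme.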

[7] = test system: IFNγ stimulated STAT1 phosphorylation on Tyr701 (JAK1/2); assay: JAK1/2 cellular target modulation: IFNγ stimulated phospho-STAT1 in PBMC; assay type: cell-based; conditions: human PBMC, IFNγ 10 ng/ml; read-out: Infγ-STAT1 IC50
From the text: as §1, §2

Sequence of JAK3 (a.a. 781-1124) (P52333 781-1124): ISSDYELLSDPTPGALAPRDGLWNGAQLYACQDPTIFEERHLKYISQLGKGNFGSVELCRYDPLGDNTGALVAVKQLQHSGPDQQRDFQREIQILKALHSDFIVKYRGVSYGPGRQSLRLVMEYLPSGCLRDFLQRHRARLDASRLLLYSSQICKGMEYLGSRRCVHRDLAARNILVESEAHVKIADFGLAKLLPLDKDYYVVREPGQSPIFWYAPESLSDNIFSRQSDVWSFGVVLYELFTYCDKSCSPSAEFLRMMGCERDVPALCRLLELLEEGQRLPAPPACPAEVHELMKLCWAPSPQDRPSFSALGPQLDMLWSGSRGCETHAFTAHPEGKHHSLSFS
Sequence of JAK2 (O60674 whole entry): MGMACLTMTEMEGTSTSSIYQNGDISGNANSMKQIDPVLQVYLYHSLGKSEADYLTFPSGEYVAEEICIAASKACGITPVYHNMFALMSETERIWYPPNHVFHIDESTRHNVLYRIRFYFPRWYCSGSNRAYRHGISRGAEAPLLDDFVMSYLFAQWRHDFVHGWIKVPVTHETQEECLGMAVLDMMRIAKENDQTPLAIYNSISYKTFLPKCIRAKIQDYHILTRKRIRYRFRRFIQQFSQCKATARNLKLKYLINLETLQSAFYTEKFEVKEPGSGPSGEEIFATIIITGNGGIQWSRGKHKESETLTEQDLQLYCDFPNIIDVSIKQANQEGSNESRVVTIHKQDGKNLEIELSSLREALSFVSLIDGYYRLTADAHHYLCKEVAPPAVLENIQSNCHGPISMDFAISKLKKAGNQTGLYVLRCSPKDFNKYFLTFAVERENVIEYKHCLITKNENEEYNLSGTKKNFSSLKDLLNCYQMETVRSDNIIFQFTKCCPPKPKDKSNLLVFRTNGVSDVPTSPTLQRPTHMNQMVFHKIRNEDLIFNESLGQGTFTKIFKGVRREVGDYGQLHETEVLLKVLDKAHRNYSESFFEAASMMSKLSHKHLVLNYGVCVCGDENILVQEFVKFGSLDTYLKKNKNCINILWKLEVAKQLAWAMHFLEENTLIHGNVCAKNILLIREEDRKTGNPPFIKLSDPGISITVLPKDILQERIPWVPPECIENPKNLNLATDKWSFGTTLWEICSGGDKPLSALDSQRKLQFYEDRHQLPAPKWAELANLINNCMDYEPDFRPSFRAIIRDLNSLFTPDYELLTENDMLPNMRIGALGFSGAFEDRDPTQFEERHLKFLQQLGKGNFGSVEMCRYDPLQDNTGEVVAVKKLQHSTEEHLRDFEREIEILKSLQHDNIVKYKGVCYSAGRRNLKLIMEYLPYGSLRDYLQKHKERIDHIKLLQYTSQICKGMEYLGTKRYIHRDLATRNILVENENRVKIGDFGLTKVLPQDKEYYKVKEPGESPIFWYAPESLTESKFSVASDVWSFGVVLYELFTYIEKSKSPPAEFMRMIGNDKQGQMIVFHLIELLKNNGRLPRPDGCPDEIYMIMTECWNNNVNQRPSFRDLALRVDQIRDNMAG
Sequence of Tyk-2 (P29597 whole entry): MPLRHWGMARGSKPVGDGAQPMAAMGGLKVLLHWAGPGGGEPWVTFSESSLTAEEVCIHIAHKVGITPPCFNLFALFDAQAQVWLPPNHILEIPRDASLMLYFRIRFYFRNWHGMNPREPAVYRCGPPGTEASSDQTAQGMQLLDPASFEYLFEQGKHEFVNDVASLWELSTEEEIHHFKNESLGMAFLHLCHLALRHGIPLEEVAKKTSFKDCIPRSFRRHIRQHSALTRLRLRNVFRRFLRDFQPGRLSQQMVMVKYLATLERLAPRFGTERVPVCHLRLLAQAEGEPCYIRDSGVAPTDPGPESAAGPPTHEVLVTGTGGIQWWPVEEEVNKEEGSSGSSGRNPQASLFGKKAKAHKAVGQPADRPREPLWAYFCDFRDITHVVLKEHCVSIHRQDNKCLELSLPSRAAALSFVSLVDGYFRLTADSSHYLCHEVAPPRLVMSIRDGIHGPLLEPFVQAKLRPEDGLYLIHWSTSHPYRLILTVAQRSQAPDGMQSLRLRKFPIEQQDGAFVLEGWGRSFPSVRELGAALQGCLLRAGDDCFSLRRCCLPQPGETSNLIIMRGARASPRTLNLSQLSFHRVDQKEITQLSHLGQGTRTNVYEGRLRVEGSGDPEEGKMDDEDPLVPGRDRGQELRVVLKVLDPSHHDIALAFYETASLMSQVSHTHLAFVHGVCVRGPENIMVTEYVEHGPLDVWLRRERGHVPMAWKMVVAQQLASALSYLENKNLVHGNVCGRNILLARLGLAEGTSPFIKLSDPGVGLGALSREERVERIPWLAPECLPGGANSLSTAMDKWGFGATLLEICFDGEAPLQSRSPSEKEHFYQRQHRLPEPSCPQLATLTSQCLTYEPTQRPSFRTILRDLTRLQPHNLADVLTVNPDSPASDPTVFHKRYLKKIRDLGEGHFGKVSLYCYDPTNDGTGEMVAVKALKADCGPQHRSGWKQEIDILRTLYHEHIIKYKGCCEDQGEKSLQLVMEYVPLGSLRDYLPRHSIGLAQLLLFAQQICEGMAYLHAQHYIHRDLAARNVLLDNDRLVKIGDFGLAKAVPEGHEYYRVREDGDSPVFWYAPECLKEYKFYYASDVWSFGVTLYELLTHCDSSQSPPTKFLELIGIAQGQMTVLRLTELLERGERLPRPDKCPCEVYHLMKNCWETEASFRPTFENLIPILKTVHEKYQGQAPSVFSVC
Sequence of JAK1 (P23458 whole entry): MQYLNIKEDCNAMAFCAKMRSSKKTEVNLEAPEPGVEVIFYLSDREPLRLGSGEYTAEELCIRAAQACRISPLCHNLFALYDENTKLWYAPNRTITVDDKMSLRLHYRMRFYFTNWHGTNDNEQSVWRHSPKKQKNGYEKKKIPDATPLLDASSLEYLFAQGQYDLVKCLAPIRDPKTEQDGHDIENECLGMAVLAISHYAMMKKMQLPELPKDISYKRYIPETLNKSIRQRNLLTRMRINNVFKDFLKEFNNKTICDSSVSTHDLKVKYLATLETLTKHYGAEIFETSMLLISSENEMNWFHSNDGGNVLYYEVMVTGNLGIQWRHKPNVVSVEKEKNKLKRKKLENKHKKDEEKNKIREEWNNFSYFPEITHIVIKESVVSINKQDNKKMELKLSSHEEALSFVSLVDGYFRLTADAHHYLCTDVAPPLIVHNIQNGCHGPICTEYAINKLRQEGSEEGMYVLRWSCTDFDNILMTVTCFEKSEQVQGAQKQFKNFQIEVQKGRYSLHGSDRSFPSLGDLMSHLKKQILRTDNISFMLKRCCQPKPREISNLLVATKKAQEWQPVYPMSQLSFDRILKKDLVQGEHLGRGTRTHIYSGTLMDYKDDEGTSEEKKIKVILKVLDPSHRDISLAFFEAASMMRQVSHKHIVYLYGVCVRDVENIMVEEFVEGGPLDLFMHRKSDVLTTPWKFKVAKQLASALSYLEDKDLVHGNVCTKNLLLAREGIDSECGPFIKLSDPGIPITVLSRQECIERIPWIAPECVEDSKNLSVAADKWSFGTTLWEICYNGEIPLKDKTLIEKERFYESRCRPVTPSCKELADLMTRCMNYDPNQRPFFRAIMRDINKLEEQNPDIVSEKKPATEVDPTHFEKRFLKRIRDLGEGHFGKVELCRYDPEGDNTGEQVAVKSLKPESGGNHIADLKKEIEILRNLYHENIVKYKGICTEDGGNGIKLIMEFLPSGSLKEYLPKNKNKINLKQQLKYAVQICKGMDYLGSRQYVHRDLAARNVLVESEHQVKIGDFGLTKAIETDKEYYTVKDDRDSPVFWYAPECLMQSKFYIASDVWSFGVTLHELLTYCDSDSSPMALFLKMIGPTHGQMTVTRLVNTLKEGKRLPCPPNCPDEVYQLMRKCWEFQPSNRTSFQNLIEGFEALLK

| Structure (SMILES) | IC50 [1] | IC50 [2] | IC50 [3] | IC50 [4] | IC50 [5] | IC50 [6] | IC50 [7] |
| --- | --- | --- | --- | --- | --- | --- | --- |
| N#CCC(=O)N1CCC[C@@H](Nc2c(-c3ccccn3)cnc3[nH]ccc23)C1 [Example 21, (R)-3-oxo-3-(3-((5-(pyridin-2-yl)-1H-pyrrolo[2,3-b]pyridin-4-yl)amino)piperidin-1-yl)propanenitrile] | 10 to 100 nM | ≤ 100 nM | 100 to 1000 nM | ≤ 10 nM | 10 to 100 nM | 10 to 100 nM | 100 to 1000 nM |
| Cc1ccc(-c2cnc3[nH]ccc3c2N[C@@H]2CCCN(C(=O)CC#N)C2)nc1 [Example 22, (R)-3-(3-((5-(5-methylpyridin-2-yl)-1H-pyrrolo[2,3-b]pyridin-4-yl)amino)piperidin-1-yl)-3-oxopropanenitrile] | 10 to 100 nM | 100 to 1000 nM | > 1000 nM | 10 to 100 nM | 10 to 100 nM | 10 to 100 nM | 100 to 1000 nM |
| N#CCC(=O)N1CCC[C@@H](Nc2c(-c3ncccn3)cnc3[nH]ccc23)C1 [Example 23, (R)-3-oxo-3-(3-((5-(pyrimidin-2-yl)-1H-pyrrolo[2,3-b]pyridin-4-yl)amino)piperidin-1-yl)propanenitrile] | 10 to 100 nM | 100 to 1000 nM | > 1000 nM | 10 to 100 nM | 100 to 1000 nM | 100 to 1000 nM | > 1000 nM |
| Cc1cc(-c2cnc3[nH]ccc3c2N[C@@H]2CCCN(C(=O)CC#N)C2)[nH]n1 [Example 26, (R)-3-(3-((5-(3-methyl-1H-pyrazol-5-yl)-1H-pyrrolo[2,3-b]pyridin-4-yl)amino)piperidin-1-yl)-3-oxopropanenitrile] | 10 to 100 nM | ≤ 100 nM | > 1000 nM | ≤ 10 nM | 10 to 100 nM | 10 to 100 nM | 100 to 1000 nM |
| N#CCCN1CCC[C@@H](Nc2c(-c3ncco3)cnc3[nH]ccc23)C1 [Example 27, (R)-3-(3-((5-(oxazol-2-yl)-1H-pyrrolo[2,3-b]pyridin-4-yl)amino)piperidin-1-yl)propanenitrile] | ≤ 10 nM | 100 to 1000 nM | > 1000 nM | 10 to 100 nM | 10 to 100 nM | 100 to 1000 nM | > 1000 nM |
| C[C@H]1CC[C@@H](Nc2c(-c3ncco3)cnc3[nH]ccc23)CN1C(=O)CC#N [Example 28, 3-((2S,5R)-2-methyl-5-((5-(oxazol-2-yl)-1H-pyrrolo[2,3-b]pyridin-4-yl)amino)piperidin-1-yl)-3-oxopropanenitrile] | ≤ 10 nM | ≤ 100 nM | 100 to 1000 nM | ≤ 10 nM | ≤ 10 nM | ≤ 10 nM | ≤ 100 nM |
| NC(=O)c1coc(-c2cnc3[nH]ccc3c2N[C@H]2CC[C@@H](O)C2)n1 [Example 29, 2-(4-(((1S,3R)-3-hydroxycyclopentyl)amino)-1H-pyrrolo[2,3-b]pyridin-5-yl)oxazole-4-carboxamide] | ≤ 10 nM | ≤ 100 nM | > 1000 nM | 10 to 100 nM | 10 to 100 nM | 100 to 1000 nM | 100 to 1000 nM |
| CNC(=O)c1coc(-c2cnc3[nH]ccc3c2N[C@@H]2CC[C@H](C)N(C(=O)CC#N)C2)n1 [Example 30, 2-(4-(((3R,6S)-1-(2-cyanoacetyl)-6-methylpiperidin-3-yl)amino)-1H-pyrrolo[2,3-b]pyridin-5-yl)-N-methyloxazole-4-carboxamide] | 100 to 1000 nM | 100 to 1000 nM | > 1000 nM | ≤ 10 nM | ≤ 10 nM | ≤ 10 nM | 100 to 1000 nM |
| CNC(=O)c1coc(-c2cnc3[nH]ccc3c2N[C@@H]2CCCN(C(=O)CC#N)C2)n1 [Example 33, (R)-2-(4-((1-(2-cyanoacetyl)piperidin-3-yl)amino)-1H-pyrrolo[2,3-b]pyridin-5-yl)-N-methyloxazole-4-carboxamide] | ≤ 10 nM | ≤ 100 nM | > 1000 nM | ≤ 10 nM | 10 to 100 nM | 10 to 100 nM | 100 to 1000 nM |
| CN(C)C(=O)c1coc(-c2cnc3[nH]ccc3c2N[C@@H]2CCCN(C(=O)CC#N)C2)n1 [Example 34, (R)-2-(4-((1-(2-cyanoacetyl)piperidin-3-yl)amino)-1H-pyrrolo[2,3-b]pyridin-5-yl)-N,N-dimethyl-oxazole-4-carboxamide] | ≤ 10 nM | 100 to 1000 nM | > 1000 nM | ≤ 10 nM | 10 to 100 nM | 10 to 100 nM | 100 to 1000 nM |
| Cc1cnc(-c2cnc3[nH]ccc3c2N[C@@H]2CCCN(C(=O)CC#N)C2)o1 [Example 36, (R)-3-(3-((5-(5-methyloxazol-2-yl)-1H-pyrrolo[2,3-b]pyridin-4-yl)amino)piperidin-1-yl)-3-oxopropanenitrile] | ≤ 10 nM | ≤ 100 nM | 100 to 1000 nM | ≤ 10 nM | ≤ 10 nM | ≤ 10 nM | ≤ 100 nM |
| Cc1cnc(-c2cnc3[nH]ccc3c2N[C@@H]2CCCN(CCC#N)C2)o1 [Example 37, (R)-3-(3-((5-(5-methyloxazol-2-yl)-1H-pyrrolo[2,3-b]pyridin-4-yl)amino)piperidin-1-yl)propanenitrile] | ≤ 10 nM | ≤ 100 nM | > 1000 nM | ≤ 10 nM | 10 to 100 nM | 10 to 100 nM | 100 to 1000 nM |
| N#CCC(=O)N1CCC[C@@H](Nc2c(-c3ncon3)cnc3[nH]ccc23)C1 [Example 38, (R)-3-(3-((5-(1,2,4-oxadiazol-3-yl)-1H-pyrrolo[2,3-b]pyridin-4-yl)amino)piperidin-1-yl)-3-oxopropanenitrile] | 10 to 100 nM | 100 to 1000 nM | > 1000 nM | 10 to 100 nM | 10 to 100 nM | 100 to 1000 nM | > 1000 nM |
| C[C@H]1C[C@@H](Nc2c(-c3ccn(C(F)F)n3)cnc3[nH]ccc23)CN(C(=O)CC#N)C1 [Example 40, 3-((3R,5S)-3-((5-(1-(difluoromethyl)-1H-pyrazol-3-yl)-1H-pyrrolo[2,3-b]pyridin-4-yl)amino)-5-methylpiperidin-1-yl)-3-oxopropanenitrile] | ≤ 10 nM | ≤ 100 nM | ≤ 100 nM | ≤ 10 nM | ≤ 10 nM | ≤ 10 nM | ≤ 100 nM |
| N#CCC(=O)N1CCC[C@@H](Nc2c(-c3ccsn3)cnc3[nH]ccc23)C1 [Example 41, (R)-3-(3-((5-(isothiazol-3-yl)-1H-pyrrolo[2,3-b]pyridin-4-yl)amino)piperidin-1-yl)-3-oxopropanenitrile] | ≤ 10 nM | ≤ 100 nM | 100 to 1000 nM | ≤ 10 nM | ≤ 10 nM | ≤ 10 nM | 100 to 1000 nM |
